# Assay results published in PubChem BioAssay (NCI).
#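 Dose response: 5 concentrations. Exposure: 48 h. Format: 96-well plates. Endpoint: linear interpolation; highest concentration if not reached. TGI is the concentration that stops growth completely.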
# How the values were obtained:
# Experiment in all cases: DTP human tumour cell line panel, 48 h
# SN12C renal = system: SN12C renal
# UO-31 renal = system: UO-31 renal
# A549 NSCLC = system: A549 NSCLC
# SF-539 CNS = system: SF-539 CNS
# UACC-257 melanoma = system: UACC-257 melanoma
# SNB-19 CNS = system: SNB-19 CNS
# RXF 393 renal = system: RXF 393 renal
# CCRF-CEM leukemia = system: CCRF-CEM leukemia
# HOP-18 NSCLC = system: HOP-18 NSCLC
# HCT-15 colon = system: HCT-15 colon
# 786-0 renal = system: 786-0 renal
# CAKI-1 renal = system: CAKI-1 renal
# KM12 colon = system: KM12 colon
# KM20L2 colon = system: KM20L2 colon
# MALME-3M melanoma = system: MALME-3M melanoma
# HOP-62 NSCLC = system: HOP-62 NSCLC
# HCC-2998 colon = system: HCC-2998 colon
# K-562 leukemia = system: K-562 leukemia
# EKVX NSCLC = system: EKVX NSCLC
# OVCAR-4 ovarian = system: OVCAR-4 ovarian
# COLO 205 colon = system: COLO 205 colon
# RXF-631 renal = system: RXF-631 renal
# NCI-H226 lung = system: NCI-H226 lung
# M19-MEL melanoma = system: M19-MEL melanoma
# HCT-116 colon = system: HCT-116 colon
# M14 melanoma = system: M14 melanoma
# NCI-H460 lung = system: NCI-H460 lung
# LXFL 529 NSCLC = system: LXFL 529 NSCLC
# MOLT-4 leukemia = system: MOLT-4 leukemia
# SF-295 CNS = system: SF-295 CNS
# SW-620 colon = system: SW-620 colon
# DLD-1 colon = system: DLD-1 colon
# SR leukemia = system: SR leukemia
# ACHN renal = system: ACHN renal
# OVCAR-3 ovarian = system: OVCAR-3 ovarian
# HT29 colon = system: HT29 colon
# SNB-78 CNS = system: SNB-78 CNS
# OVCAR-8 ovarian = system: OVCAR-8 ovarian
# XF 498 CNS = system: XF 498 CNS
# HL-60(TB) leukemia = system: HL-60(TB) leukemia
# OVCAR-5 ovarian = system: OVCAR-5 ovarian
# IGROV1 ovarian = system: IGROV1 ovarian
# RPMI-8226 leukemia = system: RPMI-8226 leukemia
# SK-OV-3 ovarian = system: SK-OV-3 ovarian
# DMS 114 small cell lung = system: DMS 114 small cell lung
# SK-MEL-2 melanoma = system: SK-MEL-2 melanoma
# U251 CNS = system: U251 CNS
# SF-268 CNS = system: SF-268 CNS
# LOX IMVI melanoma = system: LOX IMVI melanoma
# TK-10 renal = system: TK-10 renal
# SK-MEL-28 melanoma = system: SK-MEL-28 melanoma
# NCI-H23 lung = system: NCI-H23 lung
# UACC-62 melanoma = system: UACC-62 melanoma
# SNB-75 CNS = system: SNB-75 CNS
# A498 renal = system: A498 renal
# NCI-H522 lung = system: NCI-H522 lung
# SK-MEL-5 melanoma = system: SK-MEL-5 melanoma
# HOP-92 NSCLC = system: HOP-92 NSCLC
structure (smiles),measurement,setting,value
COc1ccc(/C=C/C(=O)c2sc(NC(=S)NC(=O)c3ccc(Cl)cc3)nc2C)cc1OC,TGI,SN12C renal,> 100 µM
same,TGI,UO-31 renal,> 100 µM
same,TGI,A549 NSCLC,> 100 µM
same,TGI,SF-539 CNS,> 100 µM
same,TGI,UACC-257 melanoma,> 100 µM
same,TGI,SNB-19 CNS,> 100 µM
same,TGI,RXF 393 renal,> 100 µM
same,TGI,CCRF-CEM leukemia,88.1 µM
same,TGI,HOP-18 NSCLC,> 100 µM
same,TGI,HCT-15 colon,> 100 µM
same,TGI,786-0 renal,> 100 µM
same,TGI,CAKI-1 renal,> 100 µM
same,TGI,KM12 colon,> 100 µM
same,TGI,KM20L2 colon,> 100 µM
same,TGI,MALME-3M melanoma,> 100 µM
same,TGI,HOP-62 NSCLC,> 100 µM
same,TGI,HCC-2998 colon,> 100 µM
same,TGI,K-562 leukemia,96.8 µM
same,TGI,EKVX NSCLC,> 100 µM
same,TGI,OVCAR-4 ovarian,> 100 µM
same,TGI,COLO 205 colon,> 100 µM
same,TGI,RXF-631 renal,> 100 µM
same,TGI,NCI-H226 lung,> 100 µM
same,TGI,M19-MEL melanoma,> 100 µM
same,TGI,HCT-116 colon,> 100 µM
same,TGI,M14 melanoma,> 100 µM
same,TGI,NCI-H460 lung,> 100 µM
same,TGI,LXFL 529 NSCLC,> 100 µM
same,TGI,MOLT-4 leukemia,> 100 µM
same,TGI,SF-295 CNS,> 100 µM
same,TGI,SW-620 colon,> 100 µM
same,TGI,DLD-1 colon,> 100 µM
same,TGI,SR leukemia,> 100 µM
same,TGI,ACHN renal,> 100 µM
same,TGI,OVCAR-3 ovarian,> 100 µM
same,TGI,HT29 colon,> 100 µM
same,TGI,SNB-78 CNS,> 100 µM
same,TGI,OVCAR-8 ovarian,> 100 µM
same,TGI,XF 498 CNS,> 100 µM
same,TGI,HL-60(TB) leukemia,> 100 µM
same,TGI,OVCAR-5 ovarian,> 100 µM
same,TGI,IGROV1 ovarian,> 100 µM
same,TGI,RPMI-8226 leukemia,62 µM
same,TGI,SK-OV-3 ovarian,> 100 µM
same,TGI,DMS 114 small cell lung,> 100 µM
same,TGI,SK-MEL-2 melanoma,> 100 µM
same,TGI,U251 CNS,> 100 µM
same,TGI,SF-268 CNS,> 100 µM
same,TGI,LOX IMVI melanoma,> 100 µM
same,TGI,TK-10 renal,> 100 µM
same,TGI,SK-MEL-28 melanoma,> 100 µM
same,TGI,NCI-H23 lung,> 100 µM
same,TGI,UACC-62 melanoma,39.5 µM
CCCCCCCCCCCCCC(=O)NCO,TGI,SN12C renal,> 100 µM
same,TGI,UO-31 renal,> 100 µM
same,TGI,A549 NSCLC,> 100 µM
same,TGI,SF-539 CNS,> 100 µM
same,TGI,UACC-257 melanoma,> 100 µM
same,TGI,SNB-19 CNS,> 100 µM
same,TGI,SNB-75 CNS,> 100 µM
same,TGI,RXF 393 renal,> 100 µM
same,TGI,CCRF-CEM leukemia,> 100 µM
same,TGI,HOP-18 NSCLC,> 100 µM
same,TGI,HCT-15 colon,> 100 µM
same,TGI,786-0 renal,> 100 µM
same,TGI,KM12 colon,> 100 µM
same,TGI,KM20L2 colon,> 100 µM
same,TGI,MALME-3M melanoma,> 100 µM
same,TGI,HOP-62 NSCLC,> 100 µM
same,TGI,HCC-2998 colon,> 100 µM
same,TGI,EKVX NSCLC,> 100 µM
same,TGI,OVCAR-4 ovarian,> 100 µM
same,TGI,COLO 205 colon,> 100 µM
same,TGI,RXF-631 renal,> 100 µM
same,TGI,NCI-H226 lung,> 100 µM
same,TGI,M19-MEL melanoma,> 100 µM
same,TGI,HCT-116 colon,> 100 µM
same,TGI,M14 melanoma,> 100 µM
same,TGI,A498 renal,> 100 µM
same,TGI,NCI-H460 lung,> 100 µM
same,TGI,LXFL 529 NSCLC,> 100 µM
same,TGI,SF-295 CNS,> 100 µM
same,TGI,SW-620 colon,> 100 µM
same,TGI,DLD-1 colon,> 100 µM
same,TGI,ACHN renal,> 100 µM
same,TGI,OVCAR-3 ovarian,> 100 µM
same,TGI,HT29 colon,> 100 µM
same,TGI,SNB-78 CNS,> 100 µM
same,TGI,OVCAR-8 ovarian,> 100 µM
same,TGI,NCI-H522 lung,> 100 µM
same,TGI,XF 498 CNS,> 100 µM
same,TGI,HL-60(TB) leukemia,> 100 µM
same,TGI,OVCAR-5 ovarian,> 100 µM
same,TGI,IGROV1 ovarian,> 100 µM
same,TGI,RPMI-8226 leukemia,> 100 µM
same,TGI,SK-OV-3 ovarian,> 100 µM
same,TGI,DMS 114 small cell lung,> 100 µM
same,TGI,SK-MEL-5 melanoma,> 100 µM
same,TGI,SK-MEL-2 melanoma,> 100 µM
same,TGI,HOP-92 NSCLC,> 100 µM
same,TGI,U251 CNS,> 100 µM
same,TGI,SF-268 CNS,> 100 µM
same,TGI,LOX IMVI melanoma,> 100 µM
same,TGI,TK-10 renal,> 100 µM
same,TGI,SK-MEL-28 melanoma,> 100 µM
same,TGI,NCI-H23 lung,> 100 µM
same,TGI,UACC-62 melanoma,> 100 µM
N#CNC(=NCCO)NCCO,TGI,SN12C renal,> 100 µM
same,TGI,UO-31 renal,> 100 µM
same,TGI,A549 NSCLC,> 100 µM
same,TGI,SF-539 CNS,> 100 µM
same,TGI,UACC-257 melanoma,> 100 µM
same,TGI,SNB-19 CNS,> 100 µM
same,TGI,SNB-75 CNS,> 100 µM
same,TGI,CCRF-CEM leukemia,> 100 µM
same,TGI,HOP-18 NSCLC,> 100 µM
same,TGI,HCT-15 colon,> 100 µM
same,TGI,CAKI-1 renal,> 100 µM
same,TGI,KM12 colon,> 100 µM
same,TGI,KM20L2 colon,> 100 µM
same,TGI,MALME-3M melanoma,> 100 µM
same,TGI,HOP-62 NSCLC,> 100 µM
same,TGI,HCC-2998 colon,> 100 µM
same,TGI,EKVX NSCLC,> 100 µM
same,TGI,OVCAR-4 ovarian,> 100 µM
same,TGI,COLO 205 colon,> 100 µM
same,TGI,RXF-631 renal,> 100 µM
same,TGI,NCI-H226 lung,> 100 µM
same,TGI,M19-MEL melanoma,> 100 µM
same,TGI,HCT-116 colon,> 100 µM
same,TGI,M14 melanoma,> 100 µM
same,TGI,A498 renal,> 100 µM
same,TGI,NCI-H460 lung,> 100 µM
same,TGI,LXFL 529 NSCLC,> 100 µM
same,TGI,MOLT-4 leukemia,> 100 µM
same,TGI,SF-295 CNS,> 100 µM
same,TGI,SW-620 colon,> 100 µM
same,TGI,DLD-1 colon,> 100 µM
same,TGI,SR leukemia,> 100 µM
same,TGI,ACHN renal,> 100 µM
same,TGI,OVCAR-3 ovarian,> 100 µM
same,TGI,HT29 colon,> 100 µM
same,TGI,SNB-78 CNS,> 100 µM
same,TGI,OVCAR-8 ovarian,> 100 µM
same,TGI,NCI-H522 lung,> 100 µM
same,TGI,XF 498 CNS,> 100 µM
same,TGI,HL-60(TB) leukemia,> 100 µM
same,TGI,OVCAR-5 ovarian,> 100 µM
same,TGI,IGROV1 ovarian,> 100 µM
same,TGI,RPMI-8226 leukemia,> 100 µM
same,TGI,SK-OV-3 ovarian,> 100 µM
same,TGI,DMS 114 small cell lung,> 100 µM
same,TGI,SK-MEL-2 melanoma,> 100 µM
same,TGI,U251 CNS,> 100 µM
same,TGI,SF-268 CNS,> 100 µM
same,TGI,LOX IMVI melanoma,> 100 µM
same,TGI,SK-MEL-28 melanoma,> 100 µM
same,TGI,UACC-62 melanoma,> 100 µM
